Assay results taken from patent EP0067913B1, “Composition for the treatment of acne” (RUSH-HAMPTON INDUSTRIES, INC., priority 1981, dated 1982).

Tests used:
[1] = test system: Pityrosporum ovale ATCC 14521; assay: Fungicidal activity test in corn oil medium (Sabouraud Dextrose broth and corn oil); format: cell-based; details: concentrations of 200 ppm or greater in the upper oil layer; 37°C, aerobic conditions, 7 days
Method: This organism is cultured in a corn oil medium prepared with Sabouraud Dextrose broth and Mazola@ Corn Oil. Solutions of naringenin and this broth were made in which the concentration of naringenin in the upper oil layer was 200 ppm, 400 ppm, 600 ppm, and 800 ppm. Three solutions of each concentration were tested. Each tube was inoculated with a loop full of the test organism and incubated at 37°C under aerobic conditions for 7 days.

[2] = Water solubility (qualitative comparison); format: physicochemical; details: qualitative comparison with partially hydrolyzed naringin

Question: With O=C1C[C@@H](c2ccc(O)cc2)Oc2cc(O)cc(O)c21 [naringenin] as the molecule, how does the “effect on the growth of Pityrosporum ovale ATCC 14521” value [1] read?
Answer: severely retarded the growth

Question: And the water solubility [2]?
Answer: less than those of partially hydrolyzed naringin
